For one assay, the target named is GSPT1 (Homo sapiens, UniProt P15170+Q96SW2). Description: HiBiT degradation assay, GSPT1, Procedure A. More on the design: HiBit-GSPT1 KI HEK293(LgBit) Cells; host or cells: HEK293(LgBit) knock-in cells. The assay is classed as cell-based. The settings on record: six hours. An outline of the steps:
(§1)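 10-pt dose response, 10–0.005 μM, 0.1% DMSO; cells 1×10^6/ml in DMEM/10% FBS, 6 h, 37° C; HiBiT lytic detection, luminescence; DC50 + Ymin by 4-parameter fit.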
A general note: The HiBiT peptide binds its large partner to form an active luciferase.

A further assay has as its target T1, CK1α (Homo sapiens, UniProt P48729+Q96SW2).
T1 construct: CSNK1A1-HiBit KI HEK293(LgBit) Cells; host or cells: HEK293(LgBit) knock-in cells
As to the kind of experiment: HiBiT degradation assay, CK1α, Procedure A. It is filed as cell-based. The settings on record: six hours. An outline of the steps:
as §1

We go through 27 molecules from patent publication US20240158370A1, “CK1 alpha AND DUAL CK1 alpha / GSPT1 DEGRADING COMPOUNDS” (Innovo Therapeutics, Inc., priority 2022, published 2024).

Structures are written as SMILES.

T1 sequence (P48729 whole entry): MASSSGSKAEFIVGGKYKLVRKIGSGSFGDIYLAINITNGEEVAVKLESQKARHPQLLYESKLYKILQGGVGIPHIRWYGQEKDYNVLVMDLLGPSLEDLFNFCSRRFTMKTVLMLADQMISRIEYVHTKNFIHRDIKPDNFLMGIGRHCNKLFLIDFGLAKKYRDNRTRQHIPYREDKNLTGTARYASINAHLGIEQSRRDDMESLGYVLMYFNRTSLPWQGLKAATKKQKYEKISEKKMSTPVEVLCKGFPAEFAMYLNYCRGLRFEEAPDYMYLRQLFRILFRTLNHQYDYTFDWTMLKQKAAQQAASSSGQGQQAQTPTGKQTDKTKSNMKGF
T1 sequence (Q96SW2 whole entry): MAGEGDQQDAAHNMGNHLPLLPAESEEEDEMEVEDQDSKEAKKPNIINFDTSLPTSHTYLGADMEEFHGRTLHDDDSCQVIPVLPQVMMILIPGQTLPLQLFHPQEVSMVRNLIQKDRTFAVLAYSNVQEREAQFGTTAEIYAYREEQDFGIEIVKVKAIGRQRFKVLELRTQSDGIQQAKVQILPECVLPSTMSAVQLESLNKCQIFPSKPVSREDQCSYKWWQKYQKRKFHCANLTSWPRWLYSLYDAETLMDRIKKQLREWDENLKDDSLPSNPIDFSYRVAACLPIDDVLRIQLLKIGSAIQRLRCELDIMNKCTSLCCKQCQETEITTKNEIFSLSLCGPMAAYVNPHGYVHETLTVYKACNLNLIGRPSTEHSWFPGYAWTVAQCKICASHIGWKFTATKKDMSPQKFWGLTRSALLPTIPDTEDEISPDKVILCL
T1 sequence (Q16531 whole entry partner): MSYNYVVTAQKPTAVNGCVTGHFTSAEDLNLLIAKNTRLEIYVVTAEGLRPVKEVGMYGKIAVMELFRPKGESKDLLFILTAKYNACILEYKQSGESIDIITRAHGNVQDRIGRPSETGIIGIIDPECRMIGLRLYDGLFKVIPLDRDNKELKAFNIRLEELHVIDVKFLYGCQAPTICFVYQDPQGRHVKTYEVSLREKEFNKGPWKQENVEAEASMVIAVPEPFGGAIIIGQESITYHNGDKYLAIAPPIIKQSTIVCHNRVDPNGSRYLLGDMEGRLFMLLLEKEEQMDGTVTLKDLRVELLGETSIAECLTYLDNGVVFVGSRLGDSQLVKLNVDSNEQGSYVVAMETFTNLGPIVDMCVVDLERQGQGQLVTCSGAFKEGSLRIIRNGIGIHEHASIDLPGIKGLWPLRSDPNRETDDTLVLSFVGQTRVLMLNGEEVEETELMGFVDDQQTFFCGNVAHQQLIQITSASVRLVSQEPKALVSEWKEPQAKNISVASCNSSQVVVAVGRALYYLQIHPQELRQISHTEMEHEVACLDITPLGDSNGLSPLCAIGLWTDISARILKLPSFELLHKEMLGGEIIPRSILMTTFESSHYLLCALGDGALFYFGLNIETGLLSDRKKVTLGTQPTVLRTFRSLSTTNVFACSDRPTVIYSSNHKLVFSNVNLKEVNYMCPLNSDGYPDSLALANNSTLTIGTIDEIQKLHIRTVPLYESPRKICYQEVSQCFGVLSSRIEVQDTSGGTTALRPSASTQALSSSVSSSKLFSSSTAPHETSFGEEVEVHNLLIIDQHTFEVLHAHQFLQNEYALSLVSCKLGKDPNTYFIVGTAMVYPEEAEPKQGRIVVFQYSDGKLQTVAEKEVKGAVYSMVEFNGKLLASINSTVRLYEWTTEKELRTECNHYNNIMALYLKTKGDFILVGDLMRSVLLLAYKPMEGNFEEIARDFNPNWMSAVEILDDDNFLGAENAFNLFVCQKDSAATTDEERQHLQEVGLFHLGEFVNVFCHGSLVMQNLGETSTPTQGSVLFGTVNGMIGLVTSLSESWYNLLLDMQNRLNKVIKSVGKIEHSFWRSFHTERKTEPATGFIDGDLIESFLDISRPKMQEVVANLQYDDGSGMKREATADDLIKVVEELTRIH
GSPT1, sequence (P15170 whole entry): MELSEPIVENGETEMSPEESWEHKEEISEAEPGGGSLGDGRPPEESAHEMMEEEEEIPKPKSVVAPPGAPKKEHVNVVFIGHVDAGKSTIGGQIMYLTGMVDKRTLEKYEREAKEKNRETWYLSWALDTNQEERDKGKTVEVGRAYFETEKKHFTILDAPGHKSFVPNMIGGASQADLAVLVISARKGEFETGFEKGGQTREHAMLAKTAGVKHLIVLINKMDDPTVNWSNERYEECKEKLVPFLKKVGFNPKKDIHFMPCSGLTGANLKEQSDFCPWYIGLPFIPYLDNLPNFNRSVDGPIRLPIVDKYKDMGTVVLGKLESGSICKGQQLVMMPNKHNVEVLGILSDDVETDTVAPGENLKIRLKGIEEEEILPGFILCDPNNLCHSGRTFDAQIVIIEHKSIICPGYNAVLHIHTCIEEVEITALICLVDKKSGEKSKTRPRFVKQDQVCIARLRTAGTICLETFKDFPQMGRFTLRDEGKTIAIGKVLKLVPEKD
GSPT1, sequence (Q96SW2 whole entry): as the sequence (Q96SW2 whole entry) above
GSPT1, sequence (Q16531 whole entry partner): as the sequence (Q16531 whole entry partner) above

Broadly, the DC50 is the concentration at which degradation of the target reaches its halfway point. Low readings indicate a more potent degrader, high ones a less potent degrader. For `Cc1nc(-c2ccc3c(c2)CN(C2CCC(=O)NC2=O)C3=O)c(-c2cncnc2)n1C` (stereo not drawn) [Example 544, 3-(5-(1,2-dimethyl-5-(pyrimidin-5-yl)-1H-imidazol-4-yl)-1-oxoisoindolin-2-yl)piperidine-2,6-dione], at GSPT1, the half-maximal degradation concentration (DC50) is ≥ 25 nM and the “GSPT1 Ymin” value was “F (F = >75-100% remaining)”. On CK1α, the “CK1α Ymin” value is “E (E = >25-75% remaining)” and the DC50 is ≥ 25 nM.
Consider `Cn1cc(-c2ccc3c(c2)CN(C2CCC(=O)NC2=O)C3=O)nc1C1CCC(F)(F)CC1` (stereo not drawn) [Example 545, 3-(5-(2-(4,4-difluorocyclohexyl)-1-methyl-1H-imidazol-4-yl)-1-oxoisoindolin-2-yl)piperidine-2,6-dione], for which, on GSPT1, the DC50 is ≥ 25 nM and the “GSPT1 Ymin” value is “F (F = >75-100% remaining)”. On CK1α, the “CK1α Ymin” value is recorded as “D (D = >10- 25% remaining)” and the DC50 was < 25 nM.
Regarding `Cc1ncc(-c2c(-c3ccc4c(c3)CN(C3CCC(=O)NC3=O)C4=O)nc(C3CC3)n2C)cn1` (stereo not drawn) [Example 547, 3-(5-(2-cyclopropyl-1-methyl-5-(2-methylpyrimidin-5-yl)-1H-imidazol-4-yl)-1-oxoisoindolin-2-yl)piperidine-2,6-dione], at GSPT1, the DC50 was ≥ 25 nM and the “GSPT1 Ymin” value is given as “F (F = >75-100% remaining)”. In addition, at CK1α, the “CK1α Ymin” value was “D (D = >10- 25% remaining)” and the DC50 is < 25 nM.
As to `Cn1c(C2CC2)nc(-c2ccc3c(c2)CN(C2CCC(=O)NC2=O)C3=O)c1-c1cnc(C2CC2)nc1` (stereo not drawn) [Example 548, 3-(5-(2-cyclopropyl-5-(2-cyclopropylpyrimidin-5-yl)-1-methyl-1H-imidazol-4-yl)-1-oxoisoindolin-2-yl)piperidine-2,6-dione], on GSPT1, the DC50 was ≥ 25 nM and the “GSPT1 Ymin” value is “F (F = >75-100% remaining)”. At CK1α, the “CK1α Ymin” value is “D (D = >10- 25% remaining)” and the DC50 is < 25 nM.
With `CC(C)n1cc(-c2ccc3c(c2)CN(C2CCC(=O)NC2=O)C3=O)nc1-c1ccccc1` (stereo not drawn) [Example 549, 3-(5-(1-isopropyl-2-phenyl-1H-imidazol-4-yl)-1-oxoisoindolin-2-yl)piperidine-2,6-dione], on GSPT1, the 50% degradation concentration (DC50) was ≥ 25 nM and the “GSPT1 Ymin” value is reported as “F (F = >75-100% remaining)”. Further, at CK1α, the “CK1α Ymin” value is listed as “C (C = 0-10% remaining)” and the DC50 is < 25 nM.
Take `O=C1CCC(N2Cc3cc(-n4ccc(-c5ccccc5)n4)ccc3C2=O)C(=O)N1` (stereo not drawn) [Example 551, 3-(1-oxo-5-(3-phenyl-1H-pyrazol-1-yl)isoindolin-2-yl)piperidine-2,6-dione]: on GSPT1, the DC50 was ≥ 25 nM and the “GSPT1 Ymin” value is reported as “F (F = >75-100% remaining)”. Besides, at CK1α, the “CK1α Ymin” value is recorded as “E (E = >25-75% remaining)” and the DC50 is < 25 nM.
For `O=C1CCC(N2Cc3cc(-n4cnc(-c5ccccc5)c4)ccc3C2=O)C(=O)N1` (stereo not drawn) [Example 552, 3-(1-oxo-5-(4-phenyl-1H-imidazol-1-yl)isoindolin-2-yl)piperidine-2,6-dione], in that order: ≥ 25 nM, “F (F = >75-100% remaining)”, “E (E = >25-75% remaining)” and ≥ 25 nM.
On to `Cn1nc(-c2ccc3c(c2)CN(C2CCC(=O)NC2=O)C3=O)nc1N1CCCCC1` (stereo not drawn) [Example 554, 3-(5-(1-methyl-5-(piperidin-1-yl)-1H-1,2,4-triazol-3-yl)-1-oxoisoindolin-2-yl) piperidine-2,6-dione], for which, at GSPT1, the DC50 is ≥ 25 nM and the “GSPT1 Ymin” value was “F (F = >75-100% remaining)”. At CK1α, the “CK1α Ymin” value was “D (D = >10- 25% remaining)” and the DC50 is < 25 nM.
As for `Cn1cc(-c2ccc3c(c2)CN(C2CCC(=O)NC2=O)C3=O)nc1-c1cc(F)cc(F)c1` (stereo not drawn) [Example 555], on GSPT1, the DC50 is ≥ 25 nM and the “GSPT1 Ymin” value is “F (F = >75-100% remaining)”. At CK1α, the “CK1α Ymin” value is on record as “C (C = 0-10% remaining)” and the DC50 was < 25 nM.
With `Cn1cc(-c2ccc3c(c2)CN(C2CCC(=O)NC2=O)C3=O)nc1-c1ccc(F)cc1` (stereo not drawn) [Example 556], on GSPT1, the DC50 was ≥ 25 nM and the “GSPT1 Ymin” value is “F (F = >75-100% remaining)”. Also, on CK1α, the “CK1α Ymin” value is reported as “C (C = 0-10% remaining)” and the DC50 was < 25 nM.
For the molecule `COc1ccc(-c2nc(-c3ccc4c(c3)CN(C3CCC(=O)NC3=O)C4=O)cn2C)cc1` (stereo not drawn) [Example 557], on GSPT1, the DC50 was ≥ 25 nM and the “GSPT1 Ymin” value was “F (F = >75-100% remaining)”. For the same molecule, at CK1α, the “CK1α Ymin” value is on record as “C (C = 0-10% remaining)” and the DC50 was < 25 nM.
As for `Cc1cc(-c2nc(-c3ccc4c(c3)CN(C3CCC(=O)NC3=O)C4=O)cn2C)ccc1N` (stereo not drawn) [Example 558], on GSPT1, the DC50 was ≥ 25 nM and the “GSPT1 Ymin” value is listed as “F (F = >75-100% remaining)”. Moreover, on CK1α, the “CK1α Ymin” value was “C (C = 0-10% remaining)” and the DC50 is < 25 nM.
`Cn1cc(-c2ccc3c(c2)CN(C2CCC(=O)NC2=O)C3=O)nc1-c1ccoc1` (stereo not drawn) [Example 559]: at GSPT1, the DC50 was < 25 nM and the “GSPT1 Ymin” value is on record as “F (F = >75-100% remaining)”. Further, at CK1α, the “CK1α Ymin” value is “C (C = 0-10% remaining)” and the DC50 was < 25 nM.
For `Cc1cc(F)ccc1-c1nc(-c2ccc3c(c2)CN(C2CCC(=O)NC2=O)C3=O)cn1C` (stereo not drawn) [Example 560], on GSPT1, the DC50 is < 25 nM and the “GSPT1 Ymin” value is listed as “F (F = >75-100% remaining)”. Besides, at CK1α, the “CK1α Ymin” value was “C (C = 0-10% remaining)” and the 50% degradation concentration (DC50) is < 25 nM.
With `Cc1ccc(F)c(-c2nc(-c3ccc4c(c3)CN(C3CCC(=O)NC3=O)C4=O)cn2C)c1` (stereo not drawn) [Example 561], on GSPT1, the DC50 is < 25 nM and the “GSPT1 Ymin” value is “F (F = >75-100% remaining)”. At CK1α, the “CK1α Ymin” value is given as “C (C = 0-10% remaining)” and the 50% degradation concentration (DC50) is < 25 nM.
As for `Cc1cc(Cl)ccc1-c1nc(-c2ccc3c(c2)CN(C2CCC(=O)NC2=O)C3=O)cn1C` (stereo not drawn) [Example 562], at GSPT1, the DC50 is < 25 nM and the “GSPT1 Ymin” value was “F (F = >75-100% remaining)”. On CK1α, the “CK1α Ymin” value is listed as “C (C = 0-10% remaining)” and the half-maximal degradation concentration (DC50) was < 25 nM.
Turning to `Cc1cc(-c2nc(-c3ccc4c(c3)CN(C3CCC(=O)NC3=O)C4=O)cn2C)ccc1F` (stereo not drawn) [Example 563], on GSPT1, the DC50 is ≥ 25 nM and the “GSPT1 Ymin” value is given as “F (F = >75-100% remaining)”. Moreover, on CK1α, the “CK1α Ymin” value is on record as “C (C = 0-10% remaining)” and the 50% degradation concentration (DC50) was < 25 nM.
With `Cc1ccc(-c2nc(-c3ccc4c(c3)CN(C3CCC(=O)NC3=O)C4=O)cn2C)cc1Cl` (stereo not drawn) [Example 564], at GSPT1, the DC50 is < 25 nM and the “GSPT1 Ymin” value was “F (F = >75-100% remaining)”. Besides, at CK1α, the “CK1α Ymin” value is “C (C = 0-10% remaining)” and the DC50 was < 25 nM.
As for `COc1ccc(-c2nc(-c3ccc4c(c3)CN(C3CCC(=O)NC3=O)C4=O)cn2C)cc1C` (stereo not drawn) [Example 565], at GSPT1, the half-maximal degradation concentration (DC50) was ≥ 25 nM and the “GSPT1 Ymin” value is reported as “F (F = >75-100% remaining)”. Besides, at CK1α, the “CK1α Ymin” value is “C (C = 0-10% remaining)” and the DC50 was < 25 nM.
For the molecule `Cc1ccc(-c2nc(-c3ccc4c(c3)CN(C3CCC(=O)NC3=O)C4=O)cn2C)cc1C` (stereo not drawn) [Example 566], at GSPT1, the DC50 was ≥ 25 nM and the “GSPT1 Ymin” value is “E (E = >25-75% remaining)”. Moreover, at CK1α, the “CK1α Ymin” value is listed as “C (C = 0-10% remaining)” and the DC50 was < 25 nM.
For `Cc1ccc(-c2nc(-c3ccc4c(c3)CN(C3CCC(=O)NC3=O)C4=O)cn2C)cc1` (stereo not drawn) [Example 568] the same measures were < 25 nM, “F (F = >75-100% remaining)”, “C (C = 0-10% remaining)” and < 25 nM.
Consider `Cn1cc(-c2ccc3c(c2)CN(C2CCC(=O)NC2=O)C3=O)nc1-c1ccc(OC(F)F)cc1` (stereo not drawn) [Example 569], for which, on GSPT1, the DC50 was < 25 nM and the “GSPT1 Ymin” value was “F (F = >75-100% remaining)”. At CK1α, the “CK1α Ymin” value is “C (C = 0-10% remaining)” and the DC50 was < 25 nM.
As for `Cc1cccc(-c2nc(-c3ccc4c(c3)CN(C3CCC(=O)NC3=O)C4=O)cn2C)c1` (stereo not drawn) [Example 570], at GSPT1, the DC50 is ≥ 25 nM and the “GSPT1 Ymin” value is “E (E = >25-75% remaining)”. On CK1α, the “CK1α Ymin” value is reported as “C (C = 0-10% remaining)” and the DC50 was < 25 nM.
Take `Cc1ccccc1-c1nc(-c2ccc3c(c2)CN(C2CCC(=O)NC2=O)C3=O)cn1C` (stereo not drawn) [Example 571]: on GSPT1, the half-maximal degradation concentration (DC50) was < 25 nM and the “GSPT1 Ymin” value is “F (F = >75-100% remaining)”. At CK1α, the “CK1α Ymin” value was “C (C = 0-10% remaining)” and the 50% degradation concentration (DC50) is < 25 nM.
On to `Cn1cc(-c2ccc3c(c2)CN(C2CCC(=O)NC2=O)C3=O)nc1-c1ccc(C#N)nc1` (stereo not drawn) [Example 572], for which, at GSPT1, the DC50 was < 25 nM and the “GSPT1 Ymin” value is given as “F (F = >75-100% remaining)”. On CK1α, the “CK1α Ymin” value is “D (D = >10- 25% remaining)” and the DC50 is < 25 nM.
In the case of `Cc1c(N)cccc1-c1nc(-c2ccc3c(c2)CN(C2CCC(=O)NC2=O)C3=O)cn1C` (stereo not drawn) [Example 573], at GSPT1, the DC50 is < 25 nM and the “GSPT1 Ymin” value is recorded as “E (E = >25-75% remaining)”. On CK1α, the “CK1α Ymin” value is “C (C = 0-10% remaining)” and the DC50 is < 25 nM.
With `Cc1cc(-c2nc(-c3ccc4c(c3)CN(C3CCC(=O)NC3=O)C4=O)cn2C)ccc1Cl` (stereo not drawn) [Example 574], at GSPT1, the DC50 was ≥ 25 nM and the “GSPT1 Ymin” value is “E (E = >25-75% remaining)”. Further, at CK1α, the “CK1α Ymin” value was “C (C = 0-10% remaining)” and the half-maximal degradation concentration (DC50) is < 25 nM.
